ChEMBL document CHEMBL3217609, “Discovery and characterization of novel potent PARP-1 inhibitors endowed with neuroprotective properties: From TIQ-A to [sequence]” (Medchemcomm, 2011)
One block for each compound: values may come before it.

Experiments:
[1] = target: Poly [ADP-ribose] polymerase 2 (Mus musculus, UniProt O88554); assay: Inhibition of mouse recombinant PARP2 assessed as radioactivity incorporated from [adenine-2,8-3H]NAD into proteins by liquid scintillation spectrometry
[2] = Kinetic aqueous solubility of the compound at pH 7.4 at 23 degC; type: physicochemical; conditions: buffer, read-out: Kinetic_solubility
[3] = target: T1, Poly [ADP-ribose] polymerase 1 (Homo sapiens, UniProt P09874); assay: Inhibition of human recombinant PARP1 by fluorescence based multiwell assay
T1 sequence (P09874 whole entry): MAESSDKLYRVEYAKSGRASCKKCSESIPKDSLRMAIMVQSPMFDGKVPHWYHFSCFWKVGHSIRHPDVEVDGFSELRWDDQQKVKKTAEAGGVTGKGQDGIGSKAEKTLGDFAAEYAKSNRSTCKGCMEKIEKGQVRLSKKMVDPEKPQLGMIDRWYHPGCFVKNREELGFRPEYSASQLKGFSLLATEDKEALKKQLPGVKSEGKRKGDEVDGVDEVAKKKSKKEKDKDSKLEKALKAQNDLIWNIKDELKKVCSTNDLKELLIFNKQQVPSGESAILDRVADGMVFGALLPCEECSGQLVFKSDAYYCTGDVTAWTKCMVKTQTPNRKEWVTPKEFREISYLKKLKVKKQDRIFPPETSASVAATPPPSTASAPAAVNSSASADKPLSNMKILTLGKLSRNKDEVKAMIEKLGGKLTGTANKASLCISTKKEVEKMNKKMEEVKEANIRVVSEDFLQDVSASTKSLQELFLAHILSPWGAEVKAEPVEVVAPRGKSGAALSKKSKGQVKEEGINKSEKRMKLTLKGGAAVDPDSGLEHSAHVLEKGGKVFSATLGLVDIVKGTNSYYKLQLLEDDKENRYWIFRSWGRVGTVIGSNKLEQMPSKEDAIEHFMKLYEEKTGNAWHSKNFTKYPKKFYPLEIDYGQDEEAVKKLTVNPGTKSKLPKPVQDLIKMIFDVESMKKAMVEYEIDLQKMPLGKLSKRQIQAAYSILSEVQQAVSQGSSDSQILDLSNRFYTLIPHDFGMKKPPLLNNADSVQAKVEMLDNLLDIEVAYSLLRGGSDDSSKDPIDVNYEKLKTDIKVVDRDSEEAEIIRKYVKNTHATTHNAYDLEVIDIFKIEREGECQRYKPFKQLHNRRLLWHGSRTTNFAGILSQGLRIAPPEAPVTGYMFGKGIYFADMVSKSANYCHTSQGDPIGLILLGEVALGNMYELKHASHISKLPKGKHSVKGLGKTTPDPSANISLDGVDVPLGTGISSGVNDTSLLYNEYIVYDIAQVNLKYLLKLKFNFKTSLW

[4] = target: T2, Poly [ADP-ribose] polymerase tankyrase-1 (Homo sapiens, UniProt O95271); assay: Inhibition of tankyrase-1 function in human HeLa cells; type: cell-based
T2 sequence (O95271 whole entry): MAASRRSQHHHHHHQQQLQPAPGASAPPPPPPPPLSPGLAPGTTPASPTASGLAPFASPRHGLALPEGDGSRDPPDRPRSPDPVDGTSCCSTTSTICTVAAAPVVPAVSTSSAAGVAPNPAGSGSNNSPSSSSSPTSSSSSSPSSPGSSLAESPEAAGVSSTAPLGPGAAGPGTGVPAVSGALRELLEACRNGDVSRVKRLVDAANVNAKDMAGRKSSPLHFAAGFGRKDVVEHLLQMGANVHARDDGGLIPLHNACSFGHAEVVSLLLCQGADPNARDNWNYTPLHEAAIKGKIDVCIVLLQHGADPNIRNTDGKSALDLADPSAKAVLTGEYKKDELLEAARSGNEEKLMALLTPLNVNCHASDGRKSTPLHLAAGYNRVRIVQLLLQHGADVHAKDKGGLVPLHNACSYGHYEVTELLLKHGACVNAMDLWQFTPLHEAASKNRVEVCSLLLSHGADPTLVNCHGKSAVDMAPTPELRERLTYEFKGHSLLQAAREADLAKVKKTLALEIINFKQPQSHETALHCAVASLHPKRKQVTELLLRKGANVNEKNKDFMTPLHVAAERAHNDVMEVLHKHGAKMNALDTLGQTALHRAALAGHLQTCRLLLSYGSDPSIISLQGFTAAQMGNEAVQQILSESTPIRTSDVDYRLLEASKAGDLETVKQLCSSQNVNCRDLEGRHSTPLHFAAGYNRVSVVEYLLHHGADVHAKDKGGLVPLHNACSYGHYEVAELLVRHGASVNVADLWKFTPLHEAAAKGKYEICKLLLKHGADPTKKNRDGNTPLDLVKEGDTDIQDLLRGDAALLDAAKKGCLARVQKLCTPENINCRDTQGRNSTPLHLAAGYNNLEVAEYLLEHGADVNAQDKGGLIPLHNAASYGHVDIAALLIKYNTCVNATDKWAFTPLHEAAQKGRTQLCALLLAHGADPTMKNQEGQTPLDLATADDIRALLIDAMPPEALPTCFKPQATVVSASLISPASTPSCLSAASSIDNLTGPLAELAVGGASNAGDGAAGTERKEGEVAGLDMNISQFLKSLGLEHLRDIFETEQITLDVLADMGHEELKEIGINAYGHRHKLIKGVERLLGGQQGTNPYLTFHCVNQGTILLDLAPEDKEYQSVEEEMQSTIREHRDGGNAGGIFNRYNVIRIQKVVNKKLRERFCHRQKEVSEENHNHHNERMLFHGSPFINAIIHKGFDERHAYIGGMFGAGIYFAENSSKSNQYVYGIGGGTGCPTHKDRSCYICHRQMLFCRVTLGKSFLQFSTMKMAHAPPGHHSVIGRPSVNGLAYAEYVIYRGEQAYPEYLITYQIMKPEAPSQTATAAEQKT

[5] = Fraction unbound in Sprague-Dawley rat brain at 10 mg/kg, iv; type: ADME, organism-based; set-up: dose 10 mg/kg, route intravenous
Rattus norvegicus [6] = assay: Neuroprotective activity in transient middle cerebral artery occlusion Sprague-Dawley rat model assessed as reduction in brain infarct volume at 1 mg/kg, ip 3 times, starting 4 hrs after occlusion relative to vehicle treated control; type: functional; conditions: route intraperitoneal
[7] = target: T1, Poly [ADP-ribose] polymerase 1; assay: Inhibition of human PARP1 in HEK293 cells assessed as prevention of in MNNG-induced ATP depletion; type: cell-based
[8] = Half life in rat liver microsomes; type: ADME
[9] = Permeability of the compound by PAMPA; type: physicochemical; conditions: read-out: permeability
Rattus norvegicus [10] = assay: Clearance in Sprague-Dawley rat at 10 mg/kg, iv; type: ADME, organism-based; set-up: dose 10 mg/kg, route intravenous; conditions: in vivo
Cytochrome P450 2D6 = Cytochrome P450 2D6 (Homo sapiens, UniProt P10635); assay: Inhibition of CYP2D6 (unknown origin); type: ADME
Cytochrome P450 2D6, sequence (P10635 whole entry): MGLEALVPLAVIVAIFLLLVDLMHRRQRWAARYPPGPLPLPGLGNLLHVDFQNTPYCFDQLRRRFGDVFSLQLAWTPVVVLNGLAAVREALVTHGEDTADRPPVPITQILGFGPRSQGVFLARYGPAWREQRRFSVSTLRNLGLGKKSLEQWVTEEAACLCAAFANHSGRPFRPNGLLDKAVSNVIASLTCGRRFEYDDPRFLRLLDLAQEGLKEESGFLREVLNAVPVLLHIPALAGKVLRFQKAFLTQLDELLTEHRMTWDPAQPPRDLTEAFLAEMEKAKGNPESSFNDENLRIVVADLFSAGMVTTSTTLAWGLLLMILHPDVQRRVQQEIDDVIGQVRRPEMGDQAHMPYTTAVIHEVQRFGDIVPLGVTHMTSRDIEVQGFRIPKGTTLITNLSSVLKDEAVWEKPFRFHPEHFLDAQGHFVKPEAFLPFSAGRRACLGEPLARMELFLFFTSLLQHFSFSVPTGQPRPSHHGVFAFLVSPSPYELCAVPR

[11] = Half life in human liver microsomes; type: ADME
hERG (KCNH2) = hERG (KCNH2) (Homo sapiens, UniProt Q12809); assay: Inhibition of human ERG at 10 uM
hERG (KCNH2), sequence (Q12809 whole entry): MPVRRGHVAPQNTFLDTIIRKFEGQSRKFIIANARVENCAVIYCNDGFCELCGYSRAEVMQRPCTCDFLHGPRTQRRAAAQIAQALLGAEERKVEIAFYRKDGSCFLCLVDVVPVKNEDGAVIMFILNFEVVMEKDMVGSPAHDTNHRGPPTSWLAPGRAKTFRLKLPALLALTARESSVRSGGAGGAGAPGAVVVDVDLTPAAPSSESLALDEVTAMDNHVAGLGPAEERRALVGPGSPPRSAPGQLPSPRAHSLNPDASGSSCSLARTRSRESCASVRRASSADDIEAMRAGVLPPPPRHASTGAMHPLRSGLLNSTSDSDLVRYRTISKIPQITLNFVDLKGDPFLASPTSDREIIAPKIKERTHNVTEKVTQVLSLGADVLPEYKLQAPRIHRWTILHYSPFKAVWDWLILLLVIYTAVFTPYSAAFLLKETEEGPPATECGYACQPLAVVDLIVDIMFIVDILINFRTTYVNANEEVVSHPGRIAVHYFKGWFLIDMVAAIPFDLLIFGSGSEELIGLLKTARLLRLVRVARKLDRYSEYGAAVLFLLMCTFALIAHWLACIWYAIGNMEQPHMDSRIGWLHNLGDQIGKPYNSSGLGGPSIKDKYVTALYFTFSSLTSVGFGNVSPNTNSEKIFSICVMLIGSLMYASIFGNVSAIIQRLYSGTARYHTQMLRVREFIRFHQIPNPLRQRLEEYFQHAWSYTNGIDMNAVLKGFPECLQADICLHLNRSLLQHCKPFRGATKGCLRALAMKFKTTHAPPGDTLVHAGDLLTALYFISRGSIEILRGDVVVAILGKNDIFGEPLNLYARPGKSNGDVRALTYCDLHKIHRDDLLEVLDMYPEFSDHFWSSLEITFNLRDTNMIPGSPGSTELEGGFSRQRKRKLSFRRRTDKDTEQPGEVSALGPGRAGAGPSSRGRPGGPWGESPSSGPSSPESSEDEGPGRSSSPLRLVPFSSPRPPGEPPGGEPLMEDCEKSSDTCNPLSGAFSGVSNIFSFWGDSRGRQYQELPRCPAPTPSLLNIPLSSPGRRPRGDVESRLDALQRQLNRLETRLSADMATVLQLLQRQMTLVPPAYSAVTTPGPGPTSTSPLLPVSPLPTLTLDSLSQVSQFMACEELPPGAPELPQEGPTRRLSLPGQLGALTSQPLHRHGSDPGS

[12] = AUC (0 to infinity) in Sprague-Dawley rat at 10 mg/kg, iv; type: ADME, organism-based; set-up: time infinity, dose 10 mg/kg, route intravenous; conditions: plasma
[13] = Clearance in rat hepatocytes assessed per 10^6 cells; type: ADME, cell-based, Hepatocyte; conditions: read-out: CLH
[14] = Clearance in human hepatocytes assessed per 10^6 cells; type: ADME, cell-based, Hepatocyte; conditions: read-out: CLH
Brain = assay: Free drug level in Sprague-Dawley rat brain at 10 mg/kg, iv; type: ADME, organism-based; set-up: dose 10 mg/kg, route intravenous; conditions: in vivo
Rattus norvegicus [15] = assay: Neuroprotective activity in transient middle cerebral artery occlusion Sprague-Dawley rat model assessed as reduction in brain infarct volume at 0.1 mg/kg, ip 3 times, starting 4 hrs after occlusion relative to vehicle treated control; type: functional; conditions: route intraperitoneal
[16] = Volume of distribution in Sprague-Dawley rat at 10 mg/kg, iv; type: ADME, organism-based; set-up: dose 10 mg/kg, route intravenous; conditions: in vivo
[17] = Ratio of drug level in brain to plasma in Sprague-Dawley rat at 10 mg/kg, iv; type: ADME, organism-based; set-up: dose 10 mg/kg, route intravenous; conditions: read-out: BPR
[18] = Half life in Sprague-Dawley rat at 10 mg/kg, iv; type: ADME, organism-based; set-up: dose 10 mg/kg, route intravenous; conditions: in vivo
Rattus norvegicus [19] = assay: Neuroprotective activity in permanent middle cerebral artery occlusion Sprague-Dawley rat model assessed as reduction in brain infarct volume at 1 mg/kg, iv 3 times at 30 mins, 3.5 hrs and 6 hrs after occlusion relative to vehicle treated control; type: functional
Cortical neurone = assay: Neuroprotective activity in mouse mixed cortical cells assessed as reduction in oxygen-glucose deprivation-induced LDH release; type: functional, cell-based
Rattus norvegicus [20] = assay: Neuroprotective activity in transient middle cerebral artery occlusion Sprague-Dawley rat model assessed as reduction in brain infarct volume at 10 mg/kg, ip 3 times, starting 4 hrs after occlusion relative to vehicle treated control; type: functional; conditions: route intraperitoneal
[21] = Cmax in Sprague-Dawley rat brain at 10 mg/kg, iv; type: ADME, organism-based; set-up: dose 10 mg/kg, route intravenous

Poly [ADP-ribose] polymerase 2, sequence (O88554 whole entry): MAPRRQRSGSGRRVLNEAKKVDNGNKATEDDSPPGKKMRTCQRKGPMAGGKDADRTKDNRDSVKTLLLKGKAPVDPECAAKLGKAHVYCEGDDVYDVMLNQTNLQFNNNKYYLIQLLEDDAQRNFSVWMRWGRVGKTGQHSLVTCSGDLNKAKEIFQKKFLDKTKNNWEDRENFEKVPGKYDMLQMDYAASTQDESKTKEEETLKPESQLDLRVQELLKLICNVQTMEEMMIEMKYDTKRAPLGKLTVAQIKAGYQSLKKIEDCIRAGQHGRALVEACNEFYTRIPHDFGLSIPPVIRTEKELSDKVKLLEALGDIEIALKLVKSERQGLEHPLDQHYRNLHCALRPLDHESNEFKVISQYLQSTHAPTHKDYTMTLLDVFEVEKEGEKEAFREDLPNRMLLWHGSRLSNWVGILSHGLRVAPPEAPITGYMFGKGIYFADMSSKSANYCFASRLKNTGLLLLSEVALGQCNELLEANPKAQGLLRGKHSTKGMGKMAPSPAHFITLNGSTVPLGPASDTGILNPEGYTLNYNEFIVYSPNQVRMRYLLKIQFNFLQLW

IC50 [1]: 600 nM
solubility kinetic [2]: < 100 µg/mL
IC50 [3]: 900 nM
SMILES: O=c1[nH]c2sccc2c2ccccc12

IC50 [1]: 300 nM
IC50 [4]: > 100000 nM
IC50 [3]: 180 nM
SMILES: CN(C)Cc1cc2c([nH]c(=O)c3ccccc32)s1

fraction unbound [5]: 0.13
EC50 [7]: 14 nM
half-life [8]: 3 min
Papp [9]: 4.6 ×10⁻⁶ cm/s
clearance (Rattus norvegicus [10]): 69 mL/min/kg
IC50 [1]: 38 nM
IC50 (Cytochrome P450 2D6): 170000 nM
solubility kinetic [2]: 70 µg/mL
IC50 [4]: > 100000 nM
half-life [11]: 30 min
AUC(0-inf) [12]: 1680 ng·h/mL
hepatocyte CLint [13]: 26.4 µL/min/1e6 cells
hepatocyte CLint [14]: 22.2 µL/min/1e6 cells
Drug uptake(free) (Brain): 87 nM
Vd [16]: 2.1 L/kg
IC50 [3]: 29 nM
Kp [17]: 0.26
half-life [18]: 48 min
EC50 (Cortical neurone): 300 nM
Cmax [21]: 678 nM
SMILES: Br.CN(C)Cc1cc2c([nH]c(=O)c3cccc(O)c32)s1
inhibition in vivo at 1 mg/kg (Rattus norvegicus [6]): 55%
inhibition at 10 µM (hERG (KCNH2)): 14%
inhibition in vivo at 0.1 mg/kg (Rattus norvegicus [15]): 17.5%
inhibition in vivo at 1 mg/kg (Rattus norvegicus [19]): 42%
inhibition in vivo at 10 mg/kg (Rattus norvegicus [20]): 62%

EC50 [7]: 945 nM
EC50 (Cortical neurone): 2370 nM
SMILES: O=c1[nH]c2ccccc2c2ccccc12
